The results in this text go back to patent publication US6841566B2, “Viral polymerase inhibitors” (Boehringer Ingelheim, Ltd., priority 2001, dated 2005).

Where only a bound is given, the exact number is not on record here.

The assay deals with Huh7 cells that stably maintain a subgenomic HCV replicon (S22.3 cell-line). Put plainly: Cell based HCV RNA replication assay (S22.3 replicon cells, real-time RT-PCR). As to conditions: Hepatitis C virus, Huh-7, 72 hours. As for the experimental part:
Huh7 cells that stably maintain a subgenomic HCV replicon were established as previously described (Lohman et al., 1999. Science 285: 110-113) and designated as the S22.3 cell-line. S22.3 cells were maintained in Dulbecco's Modified […] Medium (DMEM) supplemented with 10% FBS and 0.5 mg/mL neomycin (Standard Medium). During the assay, DMEM medium supplemented with 10% FBS, containing 0.5% DMSO and lacking neomycin was used (Assay Medium). 16 hours prior to compound addition, S22.3 cells are trypsinized and diluted to 100 000 cells/ml in Standard Medium. 100μL (10 000 cells) are distributed into each well of a 96-well plate. The plate was then incubated at 37° C. with 5% CO2 until the next day.
10 μL of test compound (in 100% DMSO) was added to 2 ml of Assay Medium for a final DMSO concentration of 0.5% and the solution was sonicated for 15 min and filtered through a […] Millipore Filter Unit. 900 μl was transferred into row A of a Polypropylene Deep-Well Titer Plate. Rows B to H, contain 400 μL aliquots of Assay Medium (containing 0.5% DMSO), and were used to prepare serial dilutions (1/2) by transferring 400 μl from row to row (no compound was included in row H).
Cell culture medium was aspirated from the 96-well plate containing the S22.3 cells. 175 μL of assay medium with the appropriate dilution of test compound was transferred from each well of the compound plate to the corresponding well of the cell culture plate (row H was used as the “No inhibition control”). The cell culture plate was incubated at 37° C. with 5% CO2 for 72 hours.
Following the 72 hour incubation period, the total cellular RNA was extracted from the S22.3 cells of the 96-well plate using the RNeasy 96 kit (Qiagen®, RNeasy Handbook. 1999.). Briefly, assay medium was completely removed from cells and 100 μL of RLT buffer (Qiagen®) containing 143 mM β-mercaptoethanol was added to each well of the 96-well cell-culture plate. The microplate was gently shaken for 20 sec. 100 μL of 70% ethanol was then added to each microplate well, and mixed by pipetting. The lysate was removed and applied to the wells of a RNeasy 96 (Qiagen®) plate that was placed on top of a Qiagen® Square-Well Block. The RNeasy 96 plate was sealed with tape and the Square-Well Block with the RNeasy 96 plate was loaded into the holder and placed in a rotor bucket of a 4K15C centrifuge. The sample was centrifuged at 6000 rpm (˜5600×g) for 4 min at room temperature. The tape was removed from the plate and 0.8 ml of Buffer RW1 (Qiagen® RNeasy 96 kit) was added to each well of the RNeasy 96 plate. The RNeasy 96 plate was sealed with a new piece of tape and centrifuged at 6000 rpm for 4 min at room temperature. The RNeasy 96 plate was placed on top of another clean Square-Well Block, the tape removed and 0.8 ml of Buffer RPE (Qiagen® RNeasy 96 kit) was added to each well of the RNeasy 96 plate. The RNeasy 96 plate was sealed with a new piece of tape and centrifuged at 6000 rpm for 4 min at room temperature. The tape was removed and another 0.8 ml of Buffer RPE (Qiagen® RNeasy 96 kit) was added to each well of the RNeasy 96 plate. The RNeasy 96 plate was sealed with a new piece of tape and centrifuged at 6000 rpm for 10 min at room temperature. Tape was removed, the RNeasy 96 plate was placed on top of a rack containing 1.2-mL collection microtubes. The RNA was eluted by adding 50 μL of RNase-free water to each well, sealing plate with a new piece of tape and incubated for 1 min at room temperature. The plate was then centrifuged at 6000 rpm for 4 min at room temperature. The elution step was repeated with a second volume of 50 μl RNase-free water. The microtubes with total cellular RNA are stored at −70° C.
RNA was quantified on the STORM® system (Molecular Dynamics®) using the RiboGreen® RNA Quantification Kit (Molecular Probes®). Briefly, the RiboGreen reagent was diluted 200-fold in TE (10 mM Tris-HCl pH=7.5, 1 mM EDTA). Generally, 50 μL of reagent was diluted in 10 mL TE. […]
(In general: In antiviral work, replicon cells carry a viral genome segment that copies itself.)
For the molecule `CC(NC(=O)c1ccc2c(c1)nc(-c1ccoc1)n2C1CCCCC1)C(=O)Nc1ccc(C(=O)O)cc1` (stereo not shown) [compound 1053], the EC50 – broadly, the concentration needed to bring the measured effect to its halfway point – lay in the range of 5 to 50 µM.

Molecule `O=C(O)C=Cc1ccc(NC(=O)C2(NC(=O)c3ccc4c(c3)nc(-c3ccccn3)n4C3CC4CCC3C4)CCCC2)cc1` (mixture of isomers) [compound 2020] showed an EC50 not above 5 µM.

Take `CC1CCCC(C)C1n1c(-c2ccccn2)nc2cc(C(=O)NC3(C(=O)Nc4ccc(C=CC(=O)O)cc4)CCCC3)ccc21` (mixture of isomers) [compound 2036]: the EC50 was not above 5 µM.

Turning to `O=C(O)/C=C/c1ccc(NC(=O)C2(NC(=O)c3ccc4c(c3)nc(-c3ccco3)n4C3CCCCC3)CCCC2)cc1` [compound 2049], the EC50 was not above 5 µM.

On to `O=C(O)/C=C/c1ccc(NC(=O)C2(NC(=O)c3ccc4c(c3)nc(-c3ccoc3)n4C3CCCC3)CCCC2)cc1` [compound 2013], for which the EC50 was 5 to 50 µM.

On to `C[C@@H](NC(=O)c1ccc2c(c1)nc(-c1ccccn1)n2C1CCCCC1)C(=O)Nc1ccc(/C=C/C(=O)O)cc1` [compound 2002], for which the EC50 is not above 5 µM.

The molecule `CCC[C@@H](NC(=O)c1ccc2c(c1)nc(-c1ccoc1)n2C1CCCCC1)C(=O)Nc1ccc(/C=C/C(=O)O)cc1` [compound 1076] yielded a concentration giving a half-maximal response (EC50) not above 5 µM.

Molecule `O=C(NC1(C(=O)Nc2ccc3[nH]c(C(=O)O)cc3c2)CCCC1)c1ccc2c(c1)nc(-c1ccoc1)n2C1CCCCC1` [compound 1098] showed a half-maximal effective concentration (EC50) of 5 to 50 µM.

Consider `O=C(O)/C=C/c1ccc(NC(=O)C2(NC(=O)c3ccc4c(c3)nc(-c3ccccn3)n4C3CCCC3)CCCC2)cc1` [compound 2012], for which the EC50 was 5 to 50 µM.

`Cn1cccc1-c1nc2cc(C(=O)NC3(C(=O)Nc4ccc(/C=C/C(=O)O)cc4)CCCC3)ccc2n1C1CCCCC1` [compound 2048] came in with an EC50 not above 5 µM.

Regarding `O=C(O)/C=C/c1ccc(NC(=O)C2(NC(=O)c3ccc4c(c3)nc(-c3ccoc3)n4C3CCCCC3)CCCC2)cc1` [compound 1071], the EC50 is not above 5 µM.

Consider `CC1CCCCC1n1c(-c2ccoc2)nc2cc(C(=O)NC3(C(=O)Nc4ccc(C=CC(=O)O)cc4)CCCC3)ccc21` (stereo not shown) [compound 2045], for which the EC50 is not above 5 µM.

Consider `O=C(O)/C=C/c1ccc(NC(=O)C2(NC(=O)c3ccc4c(c3)nc(-c3ccc[nH]3)n4C3CCCCC3)CCCC2)cc1` [compound 2007], for which the EC50 was not above 5 µM.

Molecule `O=C(O)C=Cc1ccc(NC(=O)C2(NC(=O)c3ccc4c(c3)nc(-c3ccoc3)n4C3CC4CCC3C4)CCCC2)cc1` (mixture of isomers) [compound 2021] displayed an EC50 not above 5 µM.

With `C[C@H](NC(=O)c1ccc2c(c1)nc(-c1ccoc1)n2C1CCCCC1)C(=O)Nc1ccc(/C=C/C(=O)O)cc1` [compound 1056], the concentration giving a half-maximal response (EC50) was 5 to 50 µM.

`O=C(O)C=Cc1ccc(NC(=O)C2(NC(=O)c3ccc4c(c3)nc(-c3cccs3)n4C3CC4CCC3C4)CCCC2)cc1` (mixture of isomers) [compound 2019] came in with an EC50 not above 5 µM.

`CC(NC(=O)c1ccc2c(c1)nc(-c1ccoc1)n2C1CCCCC1)C(=O)Nc1ccc(/C=C/C(=O)O)cc1` (stereo not shown) [compound 1054]: the concentration giving a half-maximal response (EC50) is 5 to 50 µM.

`Cn1c(C(=O)O)cc2cc(NC(=O)C3(NC(=O)c4ccc5c(c4)nc(-c4ccoc4)n5C4CCCCC4)CCCC3)ccc21` [compound 1077]: the EC50 is not above 5 µM.

`O=C(NC1(C(=O)Nc2ccc3nc(S)sc3c2)CCCC1)c1ccc2c(c1)nc(-c1ccoc1)n2C1CCCCC1` [compound 1078] gave an EC50 not above 5 µM.

Turning to `C[C@@H](NC(=O)c1ccc2c(c1)nc(-c1ccccc1)n2C1CCCCC1)C(=O)Nc1ccc(/C=C/C(=O)O)cc1` [compound 2003], the EC50 fell in the range of 5 to 50 µM.

With `Cc1nc(C(=O)O)sc1-c1ccc(NC(=O)C2(NC(=O)c3ccc4c(c3)nc(-c3ccoc3)n4C3CCCCC3)CCCC2)cc1` [compound 1091], the EC50 was not above 5 µM.

`CCn1c(C(=O)O)cc2cc(NC(=O)C3(NC(=O)c4ccc5c(c4)nc(-c4ccoc4)n5C4CCCCC4)CCCC3)ccc21` [compound 1085] had an EC50 not above 5 µM.
